Measured values published in ChEMBL document CHEMBL1133821, “Synthesis and antiinflammatory, analgesic activity of 3,3'-(1,2-ethanediyl)-bis[2-aryl-4-thiazolidinone] chiral compounds. Part 10” (Bioorg Med Chem Lett, 2001).

How the values were obtained:
Rattus norvegicus [1] = test: Animals with Ulcers in Carrageenan-induced paw edema test at a dose of 100 mg/kg perorally in rats; format: functional; settings: route oral
Rattus norvegicus [2] = test: Reaction time in Hot plate test at a dose of 100 mg/kg perorally in rats after 180 min (p<0.05); format: functional; settings: route oral
Rattus norvegicus [3] = test: Animals with Hyperemia in Carrageenan-induced paw edema test at a dose of 100 mg/kg perorally in rats; format: functional; settings: route oral
Rattus norvegicus [4] = test: Percent Edema variation in Carrageenan-induced paw edema test at a dose of 100 mg/kg perorally in rats after 180 min; format: functional; settings: route oral
Rattus norvegicus [5] = test: Reaction time in Hot plate test at a dose of 100 mg/kg perorally in rats after 60 min (p<0.05); format: functional; settings: route oral
[6] = Peroral dose causing 50% death of the mice population; format: ADME, organism-based; settings: mouse, in vivo, po
[7] = Minimum concentration which causes 50% of the Artemia salina larvae to lose mobility; format: ADME, organism-based; settings: in vivo
Rattus norvegicus [8] = test: Number of writhings in Acetic acid Writhing test at a dose of 100 mg/kg perorally in rats; format: functional; settings: route oral
Rattus norvegicus [9] = test: Reaction time in Hot plate test at a dose of 100 mg/kg perorally in rats after 120 min (p<0.05); format: functional; settings: route oral
Rattus norvegicus [10] = test: Percent Edema variation in Carrageenan-induced paw edema test at a dose of 100 mg/kg perorally in rats after 120 min; format: functional; settings: route oral
Rattus norvegicus [11] = test: Analgesic activity was determined using acetic acid writing test at a dose of 100 mg/kg perorally in rats.(p<0.01); format: functional; settings: route oral
Rattus norvegicus [12] = test: Percent Edema variation in Carrageenan-induced paw edema test at a dose of 100 mg/kg perorally in rats after 60 min; format: functional; settings: route oral
Rattus norvegicus [13] = test: Percent Edema variation in Carrageenan-induced paw edema test at a dose of 100 mg/kg perorally in rats after 60 min (p<0.01); format: functional; settings: route oral
Rattus norvegicus [14] = test: Percent Edema variation in Carrageenan-induced paw edema test at a dose of 100 mg/kg perorally in rats after 120 min (p<0.001); format: functional; settings: route oral
Rattus norvegicus [15] = test: Analgesic activity was determined using acetic acid writing test at a dose of 100 mg/kg perorally in rats.; format: functional; settings: route oral
Rattus norvegicus [16] = test: Percent Edema variation in Carrageenan-induced paw edema test at a dose of 100 mg/kg perorally in rats after 180 min (p<0.001); format: functional; settings: route oral
Rattus norvegicus [17] = test: Percent Edema variation in Carrageenan-induced paw edema test at a dose of 100 mg/kg perorally in rats after 60 min (p<0.001); format: functional; settings: route oral
Rattus norvegicus [18] = test: Animals with Ulcers in Carrageenan-induced paw edema test at a dose of 5 mg/kg perorally in rats; format: functional; settings: route oral
Rattus norvegicus [19] = test: Analgesic activity was determined using acetic acid writing test at a dose of 5 mg/kg perorally in rats. (p<0.01); format: functional; settings: route oral
Rattus norvegicus [20] = test: Percent Edema variation in Carrageenan-induced paw edema test at a dose of 5 mg/kg perorally in rats after 180 min (p<0.01); format: functional; settings: route oral
Rattus norvegicus [21] = test: Reaction time in Hot plate test at a dose of 5 mg/kg perorally in rats after 120 min (p<0.01); format: functional; settings: route oral
Rattus norvegicus [22] = test: Percent Edema variation in Carrageenan-induced paw edema test at a dose of 5 mg/kg perorally in rats after 120 min; format: functional; settings: route oral
Rattus norvegicus [23] = test: Animals with Hyperemia in Carrageenan-induced paw edema test at a dose of 5 mg/kg perorally in rats; format: functional; settings: route oral
Rattus norvegicus [24] = test: Number of writhings in Acetic acid Writhing test at a dose of 5 mg/kg perorally in rats; format: functional; settings: route oral
Rattus norvegicus [25] = test: Reaction time in Hot plate test at a dose of 5 mg/kg perorally in rats after 180 min (p<0.01); format: functional; settings: route oral
Rattus norvegicus [26] = test: Percent Edema variation in Carrageenan-induced paw edema test at a dose of 5 mg/kg perorally in rats after 60 min; format: functional; settings: route oral
Rattus norvegicus [27] = test: Reaction time in Hot plate test at a dose of 5 mg/kg perorally in rats after 60 min (p<0.01); format: functional; settings: route oral
Rattus norvegicus [28] = test: Reaction time in Hot plate test at a dose of 100 mg/kg perorally in rats after 180 min; format: functional; settings: route oral
Rattus norvegicus [29] = test: Reaction time in Hot plate test at a dose of 100 mg/kg perorally in rats after 120 min; format: functional; settings: route oral
Rattus norvegicus [30] = test: Reaction time in Hot plate test at a dose of 100 mg/kg perorally in rats after 60 min (p<0.01); format: functional; settings: route oral
Rattus norvegicus [31] = test: Analgesic activity was determined using acetic acid writing test at a dose of 100 mg/kg perorally in rats. (p<0.01); format: functional; settings: route oral
Rattus norvegicus [32] = test: Reaction time in Hot plate test at a dose of 100 mg/kg perorally in rats after 120 min (p<0.01); format: functional; settings: route oral
Rattus norvegicus [33] = test: Percent Edema variation in Carrageenan-induced paw edema test at a dose of 100 mg/kg perorally in rats after 120 min (p<0.05); format: functional; settings: route oral

With `O=C1CS[C@H](c2ccc(Cl)c(Cl)c2)N1CCN1C(=O)CS[C@H]1c1ccc(Cl)c(Cl)c1` the Animals (Rattus norvegicus [1]) was 0%, the Reaction time (Rattus norvegicus [2]) was 22.9 s and the Animals (Rattus norvegicus [3]) was 40%. It also gave an Edema variation (Rattus norvegicus [4]) of -61.2%, a Reaction time (Rattus norvegicus [5]) of 18.7 s and an LD50 [6] of over 1000 mg/kg. It also gave an LC50 [7] of over 1000 µg/mL, a No. of writhings (Rattus norvegicus [8]) of 4.6 and a Reaction time (Rattus norvegicus [9]) of 22.5 s. For the same compound, the Edema variation (Rattus norvegicus [10]) was -61.1%, the inhibition in vivo at 100 mg/kg (Rattus norvegicus [11]) was 77% and the Edema variation (Rattus norvegicus [12]) was -61.12%.

`O=C1CSC(c2cccc([N+](=O)[O-])c2)N1CCN1C(=O)CSC1c1cccc([N+](=O)[O-])c1` (stereo not drawn) gave an Animals (Rattus norvegicus [1]) of 0%, an Animals (Rattus norvegicus [3]) of 40% and an Edema variation (Rattus norvegicus [4]) of 23.43%. For the same compound, the LD50 [6] was over 1000 mg/kg, the LC50 [7] was over 1000 µg/mL and the Edema variation (Rattus norvegicus [13]) was -35.52%. For the same compound, the Edema variation (Rattus norvegicus [10]) was -0.31%.

`O=C1CS[C@H](c2cccc([N+](=O)[O-])c2)N1CCN1C(=O)CS[C@H]1c1cccc([N+](=O)[O-])c1` showed an Animals (Rattus norvegicus [1]) of 0%, an Edema variation (Rattus norvegicus [14]) of -67.3% and a Reaction time (Rattus norvegicus [2]) of 22 s. It also gave an Animals (Rattus norvegicus [3]) of 40%, a Reaction time (Rattus norvegicus [5]) of 17.1 s and an LD50 [6] of over 1000 mg/kg. It also gave an LC50 [7] of over 1000 µg/mL, an inhibition in vivo at 100 mg/kg (Rattus norvegicus [15]) of 13% and a No. of writhings (Rattus norvegicus [8]) of 17.8. The Reaction time (Rattus norvegicus [9]) was 19.4 s, the Edema variation (Rattus norvegicus [16]) was 21.11% and the Edema variation (Rattus norvegicus [17]) was -83.3%.

Work on `COc1ccc2c(c1)c(CC(=O)O)c(C)n2C(=O)c1ccc(Cl)cc1` [INDOMETHACIN] yielded an LD50 [6] of 15 mg/kg, an Animals (Rattus norvegicus [18]) of 80% and an inhibition in vivo at 5 mg/kg (Rattus norvegicus [19]) of 80%. It also gave an Edema variation (Rattus norvegicus [20]) of -50.86%, a Reaction time (Rattus norvegicus [21]) of 27.1 s and an Edema variation (Rattus norvegicus [22]) of -10.85%. For the same compound, the Animals (Rattus norvegicus [23]) was 100%, the No. of writhings (Rattus norvegicus [24]) was 4 and the Reaction time (Rattus norvegicus [25]) was 28 s. The Edema variation (Rattus norvegicus [26]) was -15.4% and the Reaction time (Rattus norvegicus [27]) was 26.1 s.

`COc1ccc([C@H]2SCC(=O)N2CCN2C(=O)CS[C@H]2c2ccc(OC)c(F)c2)cc1F` showed an Animals (Rattus norvegicus [1]) of 40%, an Animals (Rattus norvegicus [3]) of 20% and a Reaction time (Rattus norvegicus [28]) of 12.5 s. For the same compound, the Edema variation (Rattus norvegicus [4]) was 30.11%, the Reaction time (Rattus norvegicus [5]) was 16.1 s and the Reaction time (Rattus norvegicus [29]) was 12.3 s. It also gave an LD50 [6] of over 1000 mg/kg, an LC50 [7] of over 1000 µg/mL and a No. of writhings (Rattus norvegicus [8]) of 10.2. For the same compound, the Edema variation (Rattus norvegicus [10]) was 25.12%, the inhibition in vivo at 100 mg/kg (Rattus norvegicus [11]) was 50% and the Edema variation (Rattus norvegicus [12]) was 22.13%.

`COc1ccc(C2SCC(=O)N2CCN2C(=O)CSC2c2ccc(OC)c(OC)c2)cc1OC` (stereo not drawn) gave an Animals (Rattus norvegicus [1]) of 0%, a Reaction time (Rattus norvegicus [2]) of 16.8 s and an Animals (Rattus norvegicus [3]) of 20%. It also gave a Reaction time (Rattus norvegicus [30]) of 30.4 s, an inhibition in vivo at 100 mg/kg (Rattus norvegicus [31]) of 53% and an LD50 [6] of over 1000 mg/kg. The LC50 [7] was over 1000 µg/mL, the Reaction time (Rattus norvegicus [32]) was 26.7 s and the No. of writhings (Rattus norvegicus [8]) was 9.6. For the same compound, the Edema variation (Rattus norvegicus [33]) was -30.13%, the Edema variation (Rattus norvegicus [16]) was -76.62% and the Edema variation (Rattus norvegicus [12]) was -2.13%.

For `COc1ccc(OC)c(C2SCC(=O)N2CCN2C(=O)CSC2c2cc(OC)ccc2OC)c1` (stereo not drawn), the Animals (Rattus norvegicus [1]) was 0%, the Animals (Rattus norvegicus [3]) was 40% and the Edema variation (Rattus norvegicus [4]) was -70.22%. The LD50 [6] was over 1000 mg/kg, the LC50 [7] was over 1000 µg/mL and the Edema variation (Rattus norvegicus [10]) was -24.62%. For the same compound, the Edema variation (Rattus norvegicus [12]) was 33.55%.
